# pIC50: −log10 of the molar value. “And” between values parts separate entries of the source, which are not always exact repeats. Identical values can stand only once.
# Tests used:
# rat BCAT cytosolic form = biological target: T1, rat BCAT cytosolic form (Rattus norvegicus, UniProt P54690); test: In vitro coupled enzyme assay (glutamate dehydrogenase, NADH formation), rat BCATc; type: biochemical; conditions: recombinant rat BCATc, 37° C., 25 mM phosphate buffer pH 7.8; several values in a cell = repeat determinations; read-out: RrBCATc
# T1 construct: made in house; host or cells: E. coli BL21(DE3)
# T1 sequence (P54690 1-411): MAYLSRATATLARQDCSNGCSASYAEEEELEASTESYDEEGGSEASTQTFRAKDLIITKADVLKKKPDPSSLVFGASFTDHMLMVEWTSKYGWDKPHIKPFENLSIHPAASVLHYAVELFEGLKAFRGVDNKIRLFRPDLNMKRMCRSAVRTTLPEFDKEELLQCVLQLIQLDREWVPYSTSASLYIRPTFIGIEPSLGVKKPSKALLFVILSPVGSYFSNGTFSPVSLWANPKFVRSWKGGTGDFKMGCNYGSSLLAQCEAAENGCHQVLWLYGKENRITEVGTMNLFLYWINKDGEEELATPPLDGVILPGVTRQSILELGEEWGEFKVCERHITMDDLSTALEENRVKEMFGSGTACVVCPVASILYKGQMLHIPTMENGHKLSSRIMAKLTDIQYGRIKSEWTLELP
# Procedure: In vitro enzyme assay—human Branched Chain Amino Acid Aminotransferase cytosolic form (hBCATc) and mitochondrial form (hBCATm) as well as rat BCAT cytosolic form were assayed at 37° C. in 25 mM phosphate buffer pH 7.8. In addition, 2 mM DTT and 12.5 mM […] were added to the assay mixture. A coupling enzyme assay was used to monitor the production of glutamate. The formation of NADH from NAD+ at […] was followed on a 96-well plate Molecular Devices plate reader.
# The following components were used in this coupled assay: 4 mM ADP, 1 mM NAD+, 750 μM L-Leucine, 500 μM α-ketoglutarate, 10 μM pyridoxal phosphate, 1 unit glutamate dehydrogenase, and 1.25 μg of the appropriate BCAT enzyme. Inhibitions by compounds were assayed by adding various concentrations to this coupled assay procedure as a DMSO stock up to a 5% v/v DMSO/buffer ratio.
# Enzyme Preparation—humanBCATc and ratBCATc were expressed in BL21(DE3) cells. A growing culture of cells was induced with 1 mM IPTG at room temperature overnight. These cells were harvested by centrifugation at 10,000 g for 20 minutes. The supernatant was discarded, and the cells were stored at −80° C. until needed. The protein was purified by the following method. The cell paste was resuspended in extraction buffer (0.1 M phosphate, pH 8.0, with 0.01 M Tris-HCL and 5 mM TCEP and then lysed on a French Press at 1000 psi. The lysate was centrifuged at 10,000 g for 15 minutes, and the pellet was discarded. The supernatant was loaded onto a Hitrap Chelating column previously charged with 0.1 M NiSO4 and washed with 3 to 4 column volumes of extraction buffer. The column was then washed with 0.01 Tris, pH 7.5, 10% glycerol, 150 mM NaCl, 5 mM TCEP for two column volumes. The column was then further washed with two column volumes of 0.1 M phosphate, pH 6.0, 0.01 M Tris, 10% glycerol and 750 mM NaCl. Finally, the column was washed with two column volumes of the same buffer plus 50 mM imidazole. The BCAT enzyme was then eluted with the same buffer but with 350 mM imidazole. The eluant was then dialyzed overnight against 10 mM phosphate buffer pH 8.0, 10% glycerol, and 5 mM TCEP. The dialyzed protein was then loaded onto a Q-sepharose column and eluted using a salt gradient. Active fractions were collected and further purified on a Superose-12 column to yield pure BCAT protein.
# [1] = biological target: T2, human Branched Chain Amino Acid Aminotransferase cytosolic form (hBCATc) (Homo sapiens, UniProt P54687); test: In vitro coupled enzyme assay (glutamate dehydrogenase, NADH formation), human BCATc; type: biochemical; conditions: recombinant human BCATc, 37° C., 25 mM phosphate buffer pH 7.8; several values in a cell = repeat determinations; read-out: RhBCATc
# T2 construct: made in house; host or cells: E. coli BL21(DE3)
# T2 sequence (P54687 1-386): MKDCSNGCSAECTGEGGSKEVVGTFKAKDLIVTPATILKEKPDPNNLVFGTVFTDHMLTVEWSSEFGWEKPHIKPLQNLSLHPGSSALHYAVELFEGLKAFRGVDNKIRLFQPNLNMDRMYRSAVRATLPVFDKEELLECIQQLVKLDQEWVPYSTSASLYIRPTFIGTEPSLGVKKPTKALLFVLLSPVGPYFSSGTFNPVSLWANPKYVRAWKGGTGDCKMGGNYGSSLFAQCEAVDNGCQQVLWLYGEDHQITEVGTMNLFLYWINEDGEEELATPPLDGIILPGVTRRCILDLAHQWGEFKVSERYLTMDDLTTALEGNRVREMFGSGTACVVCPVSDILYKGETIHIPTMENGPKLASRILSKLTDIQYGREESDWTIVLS
# How it was run: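 At 37 °C in 25 mM phosphate pH 7.8 with 2 mM DTT, 1.25 μg His-tag-purified E. coli-expressed BCAT transaminated 750 μM L-leucine with 500 μM α-ketoglutarate and 10 μM PLP. Glutamate was coupled via glutamate dehydrogenase (1 mM NAD+, 4 mM ADP) to NADH formation at 340 nm. Compounds were added in DMSO up to 5% v/v.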
SMILES,pIC50 (rat BCAT cytosolic form),pIC50 [1]
"Cc1cccc(S(=O)(=O)NNC(=O)c2ccc3ccccc3c2)c1 [Example 111, 2-Naphthalenecarboxylic acid, 2-[(3-methylphenyl)sulfonyl]hydrazide]",6.33,6.33 and 5.55
"Cc1cccc2cc(C(=O)NNS(=O)(=O)c3ccccc3)oc12 [Example 86, 2-Benzofurancarboxylic acid, 7-methyl-, 2-(phenylsulfonyl)hydrazide]",6.62,4.82
"COc1ccc2cc(C(=O)NNS(=O)(=O)c3ccccc3)oc2c1 [Example 56, 2-Benzofurancarboxylic acid, 6-methoxy-, 2-(phenylsulfonyl)hydrazide]",> 6.30,5.14
"COc1ccc(Br)cc1S(=O)(=O)NNC(=O)c1cc2cccc(OC)c2o1 [Example 107, 2-Benzofurancarboxylic acid, 7-methoxy-, 2-[(5-bromo-2-methoxyphenyl)-sulfonyl]hydrazide]",5.12,4.39
"O=C(NNS(=O)(=O)c1ccc(Br)cc1OC(F)(F)F)c1ccc2oc3ccccc3c2c1 [Example 99, 2-Dibenzofurancarboxylic acid, 2-[(4-bromo-2-trifluoromethoxyphenyl)sulfonyl]-hydrazide]",4.45,4.33
"O=C(NNS(=O)(=O)c1ccccc1[N+](=O)[O-])c1ccc2oc3ccccc3c2c1 [Example 100, 2-Dibenzofurancarboxylic acid, 2-[(2-nitrophenyl)sulfonyl]hydrazide]",5.40,4.55
"O=C(NNS(=O)(=O)c1ccccc1Br)c1ccc2oc3ccccc3c2c1 [Example 94, 2-Dibenzofurancarboxylic acid, 2-[(2-bromophenyl)sulfonyl]hydrazide]",6.14,5.26
"Cc1ccc(S(=O)(=O)NNC(=O)c2ccc3ccccc3c2)cc1 [Example 112, 2-Naphthalenecarboxylic acid, 2-[(4-methylphenyl)sulfonyl]hydrazide]",5.21,4.84
"COc1cccc(S(=O)(=O)NNC(=O)c2cc3cccc(OC)c3o2)c1 [Example 109, 2-Benzofurancarboxylic acid, 7-methoxy-, 2-[(3-methoxyphenyl)sulfonyl]-hydrazide]",6.34,5.01
"Cc1ccc2oc(C(=O)NNS(=O)(=O)c3ccccc3)c(C)c2c1 [Example 89, 2-Benzofurancarboxylic acid, 3,5-dimethyl-, 2-(phenylsulfonyl)hydrazide]",< 4.00,< 4.00
"O=C(NNS(=O)(=O)c1cccc(Cl)c1Cl)c1ccc2oc3ccccc3c2c1 [Example 110, 2-Dibenzofurancarboxylic acid, 2-[(2,3-dichlorophenyl)sulfonyl]hydrazide]",6.14,4.95
"O=C(NNS(=O)(=O)c1ccccc1)c1cc2cccc(Cl)c2o1 [Example 7, 7-Chloro-benzofuran-2-carboxylic acid 2-(phenylsulfonyl)hydrazide]",6.23,4.94
"O=C(NNS(=O)(=O)c1ccccc1)c1cc2cc([N+](=O)[O-])ccc2o1 [Example 34, 2-Benzofurancarboxylic acid, 5-nitro-, 2-(phenylsulfonyl)hydrazide]",6.48,5.29
"Cc1c(C(=O)NNS(=O)(=O)c2ccccc2)oc2ccc(Cl)cc12 [Example 90, 2-Benzofurancarboxylic acid, 5-chloro-3-methyl, 2-(phenylsulfonyl)hydrazide]",< 4.00,< 4.00
"O=C(NNS(=O)(=O)c1cccc(F)c1)c1ccc2ccccc2c1 [Example 119, 2-Naphthalenecarboxylic acid, 2-[(3-fluorophenyl)sulfonyl]hydrazide]",5.66,4.90
"CCc1ccc(S(=O)(=O)NNC(=O)c2ccc3ccccc3c2)cc1 [Example 121, 2-Naphthalenecarboxylic acid, 2-[(4-ethylphenyl)sulfonyl]hydrazide]",4.94,4.26
"O=C(NNS(=O)(=O)c1ccccc1C(F)(F)F)c1cnc2ccccc2c1 [Example 123, 3-Quinolinecarboxylic acid, 2-[[2-(trifluoromethyl)phenyl]sulfonyl]hydrazide]",5.66,4.94
O=C(NNS(=O)(=O)c1cc(C(F)(F)F)ccc1Cl)c1ccc2oc3ccccc3c2c1 [Example 97],4.44,4.17
"O=C(NNS(=O)(=O)c1ccccc1)c1ccc2c(c1)OCO2 [Example 10, Benzo[1,3]dioxole-5-carboxylic acid 2-(phenylsulfonyl)hydrazide]",5.54,4.18
O=C(NNS(=O)(=O)c1ccccc1C(F)(F)F)c1ccc2ccccc2c1 [Example 113],6.28,5.39
"Cc1ccc2oc(C(=O)NNS(=O)(=O)c3ccccc3)cc2c1 [Example 77, Benzofurancarboxylic acid, 5-methyl-, 2-(phenylsulfonyl)hydrazide]",6.46,5.21 and 5.52
"COc1c(C(=O)NNS(=O)(=O)c2cccc(C)c2)oc2c(OC)cccc12 [Example 64, 2-Benzofurancarboxylic acid, 3,7-dimethoxy-, 2-[(3-methylphenyl)sulfonyl]-hydrazide]",6.72,5.48
"COc1cccc2cc(C(=O)NNS(=O)(=O)c3cccc(Cl)c3)oc12 [Example 102, 2-Benzofurancarboxylic acid, 7-methoxy-, 2-[(3-chlorophenyl)sulfonyl]hydrazide]",6.43,5.22
"Cc1ccc2oc(C(=O)NNS(=O)(=O)c3cccc(Br)c3)cc2c1 [Example 83, 2-Benzofurancarboxylic acid, 5-methyl-, 2-[3-(bromophenyl)sulfonyl]hydrazide]",6.06,5.02
"O=C(NNS(=O)(=O)c1ccccc1)c1cc2cc(Cl)ccc2o1 [Example 8, 5-Chloro-benzofuran-2-carboxylic acid 2-(phenylsulfonyl)hydrazide]",6.52,5.52
"COc1c(C(=O)NNS(=O)(=O)c2ccccc2C(F)(F)F)oc2c(OC)cccc12 [Example 62, 2-Benzofurancarboxylic acid, 3,7-dimethoxy-, 2-[(2-trifluoromethylphenyl)-sulfonyl]hydrazide]",6.48,5.32
"COc1cccc2cc(C(=O)NNS(=O)(=O)c3cccc(Cl)c3Cl)oc12 [Example 104, 2-Benzofurancarboxylic acid, 7-methoxy-, 2-[(2,3-dichlorophenyl)sulfonyl]-hydrazide]",5.85,4.64
"CCCCCc1ccc(S(=O)(=O)NNC(=O)c2cnc3ccccc3c2)cc1 [Example 122, 3-Quinolinecarboxylic acid, 2-[(4-pentylphenyl)sulfonyl)hydrazide]",4.25,4.24

# — patent publication US20050004167A1, “Branched chain amino acid-dependent aminotransferase inhibitors and their use in the treatment of neurodegenerative diseases” (WARNER-LAMBERT COMPANY LLC, priority 2001, published 2005)
